Source: patent publication US20090297492A1, “Method for Improving Cognitive Performance” (YAMAHA HATSUDOKI KABUSHIKI KAISHA, priority 2008, published 2009)

Tests used:
[1] = system: healthy males aged 50 to 69; test: CogHealth cognitive function test (task-switching) with administration of astaxanthin; assay type: in vivo, human; details: for Simple reaction, average reaction time: 10 subjects
Excerpt: CogHealth, mentioned above, is based on task-switching that is used for evaluating higher brain functions (executive functions), such as the suppression of an action or the reorganization of information processing (A. F. Kramer et al., Nature, Vol. 400, pp. 418-419 (1999), N. J. Cepeda et al, Developmental Psychology, Vol. 37, No. 5, pp. 715-730 (2001), and S. Hsieh and L. C. Liu, Brain Res. Cogn. Brain Res., Vol. 22, No. 2, pp. 165-175 (2005)). Furthermore, fMRI analysis of brain proves that frontal lobe activity and task-switching relate to each other, and thus CogHealth is accepted as a frontal lobe function test. […] In CogHealth measurement, analysis is performed by calculating an average RT (reaction time) for each task.
“Simple reaction” refers to a task of pressing a button when a card is flipped from face-down to face-up. “Choice reaction” refers to a task of pressing a button based on the judgment of whether the card flipped from face-down to face-up is red or black. In other words, the simple reaction and the choice reaction are tasks relating to reaction time and suppression time in the function of the human frontal lobe. The simple reaction time is the time taken to perform one reaction to one sensory stimulus, and the choice reaction time is the time necessary to recognize a type of a given stimulus, and to make a reaction depending on the type in a predetermined manner.
“Working memory” refers to a task of pressing a button based on the judgment of whether or not a flipped card is the same as the preceding card. “Delayed recall” refers to a task of pressing a button based on the judgment of whether or not a flipped card is the same as a card that was present in the delayed recall task. “Working memory” and “delayed recall” are tasks for measuring memory, such as immediate memory and episodic memory. Working memory is a concept that includes not only information storage for a short period but also cognitive information processing. Working memory is memory used for a very short period of time in units of seconds, but the delayed recall is memory used for a period of time slightly longer than that of the working memory.
“Divided attention” refers to a task of pressing a button when at least one of five cards moving up and down is brought into contact with an upper or lower set line, and is a task for measuring spatially divided attention ability. In other words, such divided attention is an ability not to concentrate on one point but to allocate attention to the surroundings (spatially divided attention ability or spatially allocated attention ability). The meaning of divided attention is entirely different from attention scattering.
The astaxanthin-containing soft capsules (each capsule contains 3 mg of astaxanthin) were administered to the test subjects by ingestion of two capsules with water twice a day after eating breakfast and supper. The administration period was 12 weeks.
In this example, in order to evaluate cognitive function, measurement using CogHealth (based on task-switching) and P300 (one of the event-related potentials of an electroencephalogram) was performed at 6 weeks and 12 weeks after starting administration.
The average RT (reaction time) was calculated for each of the tasks “simple reaction”, “choice reaction”, “working memory”, “delayed recall”, and “divided attention”. For two memory tasks (“working memory” and “delayed recall”), analysis was performed by also calculating the average AR (correct answer ratio).
For each index, a multiple comparison (Dunnet) was performed to obtain the P value. Regarding the result of P300, a Student's t-test was used additionally as a comparison before and after ingestion.

[2] = system: healthy males aged 50 to 69; test: P300 event-related potential of electroencephalogram, auditory oddball paradigm; assay type: in vivo, human
Excerpt: On the other hand, event-related potential, which is a type of electroencephalogram, is a method for measuring cognitive functions by measuring the activity of the cerebral nerves during cognitive work. In particular, the P300 (P3b) component of event-related potential has been used to estimate the mental work load (A. F. Kramer and T. Weber, Handbook of psychophysiology (2nd Edition), J. T. Cacioppo et al. (Eds.), New York, Cambridge University Press, (2000) pp. 794-814). In a state where two tasks are simultaneously executed, when one task is made difficult (or the priority of one task is increased), the execution performance of the other task is lowered. Based on a study using such a dual-task method, the P300 amplitude is considered to clearly reflect the cognitive functions in the perception-central nerve level that caused the amplitude (E. Donchin et al., Psychophysiology: Systems, processes, and applications, M. G. H. Coles et al. (Eds.), New York, Guilford Press, (1986) pp. 702-718). That is to say, the P300 amplitude reflects the degree of attention, the degree of concentration, and the degree of cognitive load, for a task of recognizing surroundings.
In a P300 test, for example, an auditory oddball paradigm can be employed. […] Then, a change in the obtained amplitude before and after ingestion is measured based on the Grand Average. […]
In the electroencephalogram, an auditory oddball paradigm was used in which two types of sounds consisting of a high-pitched sound having a frequency of 2 KHz and a low-pitched sound having a frequency of 1 KHz were emitted from a headphone, and the test subjects were instructed to press a button as quickly and accurately as possible at the moment when the test subjects heard the high-pitched sound. […] The evoked electroencephalograms were measured with the frontal polar (Fpz) electrode as ground, and two linked electrode attached to the left and right earlobes as reference. […]

[3] = After 6 weeks, two 3 mg capsules twice a day, oral, Mean ± SD
[4] = After 12 weeks, two 3 mg capsules twice a day, oral, Mean ± SD

SMILES: CC1=C(/C=C/C(C)=C/C=C/C(C)=C/C=C/C=C(C)/C=C/C=C(C)/C=C/C2=C(C)C(=O)[C@@H](O)CC2(C)C)C(C)(C)C[C@H](O)C1=O [astaxanthin]
- Choice reaction, average reaction time [1, 3]: 480.63 ± 39.87 ms
- Delayed recall (Correct answer rate: %) [1, 3]: 71.19 ± 5.98%
- Delayed recall, average reaction time [1, 3]: 975.40 ± 190.75 ms
- Divided attention, average reaction time [1, 3]: 419.52 ± 59.32 ms
- Working memory, average reaction time [1, 3]: 732.95 ± 174.83 ms
- Simple reaction, average reaction time [1, 3]: 303.31 ± 33.80 ms
- Choice reaction, average reaction time [1, 4]: 463.63 ± 26.49 ms
- Delayed recall (Correct answer rate: %) [1, 4]: 70.71 ± 8.91%
- Delayed recall, average reaction time [1, 4]: 916.77 ± 151.04 ms
- Divided attention, average reaction time [1, 4]: 412.07 ± 51.97 ms
- Working memory (Correct answer rate: %) [1, 4]: 96.30 ± 3.94%
- Working memory, average reaction time [1, 4]: 654.83 ± 128.42 ms
- Simple reaction, average reaction time [1, 4]: 281.76 ± 33.56 ms
- Change in reaction time for divided attention ([1]; before ingestion versus 6 weeks after ingestion, P=0.034): significant reduction
- Change in reaction time, all tasks ([1]; before ingestion versus 12 weeks after ingestion, P=0.013 to 0.034): significantly reduced
- Effect on agility, judging ability and spatially allocated attention ability ([1]; overall conclusion from CogHealth): an effect of improving agility
- Change in reaction time, all tasks of CogHealth ([1]; versus before ingestion): a reduction in reaction time was confirmed
- Change in correct answer ratio, working memory ([1]; versus before ingestion, P=0.045): significant increase
- Change in correct answer ratio, delayed recall ([1]; versus before ingestion, P=0.991): no significant change
- P300 Amplitude ([2]; After 12 weeks, at Fz, two 3 mg capsules twice a day, oral, Mean ± SD): −10.54 ± 3.39 μV
- Change in P300 amplitude at Fz ([2]; multiple comparisons, before/after comparison P=0.057): no significant change
- Effect on concentration on the recognition of surroundings ([2]; overall conclusion from P300): an effect of improving concentration on the recognition of surroundings
